Test results as given in publication PMC4096218 (Journal of Medicinal Chemistry, 2014).
≈ marks a conversion by molar mass, not a printed value.

What was measured:
EcUPPS = target: T1, EcUPPS (Escherichia coli, UniProt P60472); conditions: inhibitor in EcUPPS X-ray structure 2E98; cited from earlier work
T1 sequence (P60472 1-253): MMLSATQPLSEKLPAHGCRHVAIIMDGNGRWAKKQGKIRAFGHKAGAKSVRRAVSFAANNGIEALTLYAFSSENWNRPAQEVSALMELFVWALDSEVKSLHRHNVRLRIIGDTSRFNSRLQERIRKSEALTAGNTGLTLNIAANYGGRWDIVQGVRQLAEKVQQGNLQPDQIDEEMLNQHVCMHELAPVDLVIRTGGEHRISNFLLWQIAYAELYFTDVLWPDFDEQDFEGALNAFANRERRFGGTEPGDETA

[1] = tested on: panel of both Gram-positive and Gram-negative bacteria; format: cell-based; conditions: for MIC values (range in words): B. anthracis Sterne, MRSA, VRE, L. monocytogenes
[2] = tested on: Bacillus anthracis strain Sterne; assay: microbe, parasite or virus in culture; format: cell-based

Row | SMILES | IC50 (EcUPPS) [nM] | MIC values (range in words) [1] | growth of Gram negatives [1] | growth of Gram positives [1] | MIC [2] [µg/mL]
1 | O=P(O)(O)C(O)(Cc1cccc(-c2cccc3c2oc2ccccc23)c1)P(=O)(O)O [BPH-629] | ~300 | – | – | – | –
2 | Cc1cc(Cl)ccc1-c1ccc(/C=C2\SC(=S)N(CC(=O)O)C2=O)o1 [Compound 1] | – | high ng/mL to low μg/mL range | did not inhibit the growth of Gram negatives | inhibited the growth of Gram positives | 1 to 2 (≈ 2.54 to 5.08 µM)
3 | O=C(O)CCN1C(=O)/C(=C/c2ccc(-c3ccc(Cl)cc3Cl)o2)SC1=S [Compound 4] | – | high ng/mL to low μg/mL range | did not inhibit the growth of Gram negatives | inhibited the growth of Gram positives | –
